Test results: patent US9517245B2, “Sorafenib-microRNA combination therapy for liver cancer” (Mirna Therapeutics, Inc., priority 2014, dated 2016)
Where two headings read alike, the source gives them in different places. Values belong to the molecule of their own block, whether it stands above or below them.

Legend:
[1] = test system: four liver cancer cell lines (Hep3b, HepG2, C3A, Huh7); assay: combination studies in four liver cancer cell lines (overall synergy statements); type: cell-based; details: combination with miRNA mimic instead of sorafenib; data not shown
[2] = cited from earlier work
Huh7 liver cancer cells = assay: sorafenib dose-effect, AlamarBlue cell proliferation; type: cell-based; details: Homo sapiens, Huh-7, 72 h, AlamarBlue 3 days post drug treatment, range from two or three experiments
Procedure: (§1) FIG. 2 illustrates dose-effect curves of sorafenib in liver cancer cells. Cells were seed in 96-well plate at 2000 cells per well. Three days after seeding the cells, sorafenib in a serial dilution from (0.1-100 μM) was added to the medium. Cell proliferation or percent inhibition was determined by AlamarBlue 3 days post drug treatment. Data were normalized to cells treated with sorafenib solvent (1% DMSO final concentration).
(§2) Sorafenib dose response curves were established in each cell line, and the cell proliferation was determined using AlamarBlue (Invitrogen) 3 days post drug treatment. Nonlinear regression and IC50 values were calculated using the GraphPad (Prism) software.
as §1, with “treatment, and IC50 values” for “treatment. Data”, “calculated using the GraphPad software.” for “normalized to cells treated with sorafenib solvent (1% DMSO final concentration).”

C3A liver cancer cells = assay: as above; type: cell-based; details: 72 h, AlamarBlue 3 days post drug treatment, range from two or three experiments
Procedure: as §1, §2
as §1, with “treatment, and IC50 values” for “treatment. Data”, “calculated using the GraphPad software.” for “normalized to cells treated with sorafenib solvent (1% DMSO final concentration).”

HepG2 liver cancer cells = assay: as above; type: cell-based; details: Homo sapiens, 72 h, AlamarBlue 3 days post drug treatment, range from two or three experiments
Procedure: as §1, §2
as §1, with “treatment, and IC50 values” for “treatment. Data”, “calculated using the GraphPad software.” for “normalized to cells treated with sorafenib solvent (1% DMSO final concentration).”

Hep3b liver cancer cells = assay: as above; type: cell-based; details: Homo sapiens, 72 h, AlamarBlue 3 days post drug treatment, range from two or three experiments
Procedure: as §1, §2
as §1, with “treatment, and IC50 values” for “treatment. Data”, “calculated using the GraphPad software.” for “normalized to cells treated with sorafenib solvent (1% DMSO final concentration).”

Compound: O=c1[nH]cc(F)c(=O)[nH]1 [5-FU]
synergy in combinations with other chemotherapeutic agents [1]: synergy was not identified

Compound: CNC(=O)c1cc(Oc2ccc(NC(=O)Nc3ccc(Cl)c(C(F)(F)F)c3)cc2)ccn1.Cc1ccc(S(=O)(=O)O)cc1 [Sorafenib tosylate, 4-(4-{3-[4-Chloro-3 (trifluoromethyl)phenyl]ureido}phenoxy) N-methylpyridine-2-carboxamide 4-methylbenzenesulfonate]
solubility ([2]; PEG 400): soluble
solubility ([2]; aqueous media): practically insoluble
solubility ([2]; ethanol): slightly soluble

IC50 (Huh7 liver cancer cells): 13.1 to 16 µM
IC50 (C3A liver cancer cells): 10.7 to 11.8 µM
IC50 (HepG2 liver cancer cells): 6.7 to 9 µM
IC50 (Hep3b liver cancer cells): 5.4 to 12.7 µM
Compound: CNC(=O)c1cc(Oc2ccc(NC(=O)Nc3ccc(Cl)c(C(F)(F)F)c3)cc2)ccn1 [Sorafenib]

Compound: COc1cccc2c1C(=O)c1c(O)c3c(c(O)c1C2=O)C[C@@](O)(C(=O)CO)C[C@@H]3O[C@H]1C[C@H](N)[C@H](O)[C@H](C)O1 [doxorubicin]
synergy in combinations with other chemotherapeutic agents [1]: synergy was not identified
